Data: PubChem BioAssay (NCI)
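Cells were grown in 96-well plates and exposed to each compound for 48 hours at five concentrations; endpoints were interpolated linearly between bracketing concentrations, or set to the highest concentration if not reached. Here, GI50 denotes the concentration required for 50% inhibition of growth. Definition used: TGI = concentration required for complete inhibition of growth.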

What was measured:
Assay in all cases: DTP human tumour cell line panel, 48 h
NCI/ADR-RES ovarian = test system: NCI/ADR-RES ovarian
MDA-MB-231 breast = test system: MDA-MB-231 breast
T-47D breast = test system: T-47D breast
MDA-N = test system: MDA-N
KM20L2 colon = test system: KM20L2 colon
DMS 114 small cell lung = test system: DMS 114 small cell lung
DMS 273 small cell lung = test system: DMS 273 small cell lung
LXFL 529 NSCLC = test system: LXFL 529 NSCLC
RXF-631 renal = test system: RXF-631 renal

Compound | TGI (NCI/ADR-RES ovarian) | TGI (MDA-MB-231 breast) | TGI (T-47D breast) | TGI (MDA-N) | TGI (KM20L2 colon) | TGI (DMS 114 small cell lung) | TGI (DMS 273 small cell lung) | TGI (LXFL 529 NSCLC) | also measured
COC12c3ccccc3-c3ccccc3C1[C@@H](C(=O)O)[C@H]2C(=O)O (stereo partly drawn) | > 10 µM | > 10 µM | > 10 µM | > 10 µM | – | – | – | – | –
O=C1c2cccnc2-c2nc(-c3ccccc3)cc3c2c1nc1ccccc13 | 32.7 µM | > 100 µM | 44.3 µM | 3.46 µM | – | – | – | – | GI50 (NCI/ADR-RES ovarian): 11.9 µM; GI50 (MDA-MB-231 breast): 4.33 µM; GI50 (T-47D breast): 5.35 µM; GI50 (MDA-N): 1.74 µM
Cc1ccc(C)c(NC(=O)CCC(=O)CC(=O)C(C)(C)C)c1 | – | – | – | – | > 100 µM | > 100 µM | > 100 µM | > 100 µM | –
O=C(O)Cc1ccccc1 | > 2000 µM | > 2000 µM | > 2000 µM | > 2000 µM | – | – | – | – | GI50 (NCI/ADR-RES ovarian): > 1000 µM; GI50 (MDA-MB-231 breast): > 1000 µM; GI50 (T-47D breast): > 1000 µM; GI50 (MDA-N): > 1000 µM
COC(=O)Oc1nn(C(=O)OC)c(=O)c2ccccc12 (tested in a mixture with another compound) | > 100 µM | > 100 µM | > 100 µM | > 100 µM | – | – | – | – | –
Nc1ncn([C@@H]2C=C(CO)C(O)C2O)c(=O)n1 (stereo partly drawn) | – | – | – | – | > 100 µM | – | > 100 µM | > 100 µM | TGI (RXF-631 renal): > 100 µM
O=C1/C(=C/c2ccccc2Cl)COc2ccccc21 | – | – | – | – | 38.1 µM | 36.2 µM | 31.6 µM | 31.6 µM | TGI (RXF-631 renal): 36.3 µM
CC1(C)CC[C@]2(C(=O)O)CCC3(C)C(=CCC4[C@@]5(C)CC[C@H](OC6OCC(O)C(O)C6OC6OC(CO)C(O)C(O)C6O)C(C)(C)C5CC[C@]43C)C2C1 (stereo partly drawn) | – | – | – | – | 3.7 µM | 3.62 µM | 3.93 µM | 3.39 µM | TGI (RXF-631 renal): 3.21 µM
CCCCCNC(=O)C1C(=O)N(CCCCC)C(=O)/C1=N\N (stereo not drawn) | – | – | – | – | > 100 µM | – | – | > 100 µM | –
Clc1ccc(C2=NN(c3ccccc3)C3c4cc(Br)ccc4OCC23)cc1 (stereo not drawn) | – | – | – | – | > 100 µM | > 100 µM | > 100 µM | > 100 µM | TGI (RXF-631 renal): > 100 µM
O=[N+]([O-])c1ccc(N=Nc2c(O)[nH]c3ccc(Br)cc23)c([N+](=O)[O-])c1 | – | – | – | – | 13.4 µM | – | – | 13.9 µM | –
O=c1[nH]cnc2c1nnn2C1C=C(CO)C(O)C1O (stereo not drawn) | – | – | – | – | > 100 µM | > 100 µM | 60.1 µM | > 100 µM | –
c1ccc2c(c1)SCCCSCCCS2 | > 100 µM | > 100 µM | > 100 µM | > 100 µM | – | – | – | – | –
Nc1cc2c3c(cccc3c1)C(=O)N(CCN1CCN(CCN3C(=O)c4cccc5cc(N)cc(c45)C3=O)CC1)C2=O | – | – | – | – | > 100 µM | > 100 µM | > 100 µM | > 100 µM | TGI (RXF-631 renal): > 100 µM
COc1ccc(C(NCCNC(c2ccc(OC)c(OC)c2)c2cc3c(cc2O)OCO3)c2cc3c(cc2O)OCO3)cc1OC (stereo not drawn) | 8.27 µM | 8.14 µM | 13.1 µM | 3.58 µM | – | – | – | – | –
O=C(CN1c2ccccc2Sc2ccccc21)n1cnc2ccccc21 | > 100 µM | > 100 µM | > 100 µM | > 100 µM | – | – | – | – | –
COc1ccc(C=O)c(N(C)C(=O)C(C)(C)C)c1 | – | – | – | – | > 100 µM | > 100 µM | > 100 µM | – | TGI (RXF-631 renal): > 100 µM
CC/C(=C(/CC)c1ccc(OP(=O)([O-])[O-])cc1)c1ccc(OP(=O)([O-])[O-])cc1.N.N.N.N.[Pt+4].[Pt+4] | – | – | – | – | > 100 µM | – | 18.9 µM | 31.6 µM | GI50 (KM20L2 colon): 26.1 µM; GI50 (DMS 273 small cell lung): 2.17 µM; GI50 (LXFL 529 NSCLC): 14 µM
C[CH2][Sn]([CH2]C)([O]C(=O)c1cc(OC)c(OC)c(OC)c1)[O][Sn]([CH2]C)([CH2]C)[O]C(=O)c1cc(OC)c(OC)c(OC)c1 | – | – | – | – | > 100 µM | 29.1 µM | > 100 µM | – | GI50 (RXF-631 renal): 24.5 µM; TGI (RXF-631 renal): 53.7 µM; GI50 (KM20L2 colon): 64.6 µM; GI50 (DMS 114 small cell lung): 15.1 µM; GI50 (DMS 273 small cell lung): 84.5 µM
Cc1cc2c(C)nn(Cc3ccc(Cl)cc3Cl)c2c(C#N)c1C | – | – | – | – | > 100 µM | – | > 100 µM | > 100 µM | –
CCOc1ccc(NC(=O)/C(=C/c2ccccc2)C(C)=O)cc1 | – | – | – | – | 32.5 µM | 26.9 µM | 43.2 µM | – | –
CCN=C(N)CSS(=O)(=O)O | > 100 µM | > 100 µM | > 100 µM | > 100 µM | – | – | – | – | –
CCN1N=CSC12C(=O)N(c1ccccc1)C(=O)N2c1ccccc1 (stereo not drawn) | – | – | – | – | > 100 µM | > 100 µM | – | > 100 µM | TGI (RXF-631 renal): > 100 µM
CC1(C)OCC(C2OC(On3nnc4ccc(Cl)cc43)C3OC(C)(C)OC23)O1 (stereo not drawn) | > 100 µM | > 100 µM | > 100 µM | > 100 µM | – | – | – | – | –
COc1ccc(C(=O)Nc2ccccc2C#N)cc1 | – | – | – | – | > 100 µM | – | > 100 µM | – | –
CC(=O)C(CN1CCOCC1)C(c1ccccc1)c1c(O)c2ccccc2oc1=O (stereo not drawn) | > 100 µM | > 100 µM | > 100 µM | > 100 µM | – | – | – | – | –
O=C(Nc1ccc(Cl)cc1)C(=O)C1=C(O)c2ccccc2OC1 | > 100 µM | > 100 µM | > 100 µM | > 100 µM | – | – | – | – | –
